Measurements reported in US20130183268A1, “DRUG COMBINATIONS WITH FLUORO-SUBSTITUTED OMEGA-CARBOXYARYL DIPHENYL UREA FOR THE TREATMENT AND PREVENTION OF DISEASES AND CONDITIONS” (BAYER HEALTHCARE LLC, priority 2010, published 2013).

Legend:
[1] = molecular target: T1, p38 α2 (Homo sapiens, UniProt Q16539); experiment: p38 kinase in vitro assay; type: biochemical; conditions: in words
T1 construct: His; made in house; host or cells: E. coli
Description: Purified and His-tagged p38 α2 (expressed in E. Coli) was activated in vitro by MMK-6 to a high specific activity. Using a microtiter format, all reactions were conducted in 100 μL volumes with reagents diluted to yield 0.05 μg/well of activated p38 α2 and 10 μg/well of myelin basic protein in assay buffer (25 mM HEPES 7.4, 20 mM MgCl2, 150 mM NaCl). Test compounds (5 μL of a 10% DMSO solution in water) were prepared and diluted into the assay to cover a final concentration range from 5 nM to 2.5 μM. The kinase assay was initiated by addition of 25 μL of an ATP cocktail to give a final concentration of 10 μM cold ATP and 0.2 μCi [gamma-^33P] ATP per well (200-400 dpm/pmol of ATP). The plate was incubated at 32° C. for 35 min., and the reaction quenched with 7 μL of a 1 N aq HCl solution. The samples were harvested onto a P30 Filtermat (Wallac, Inc.) using a TomTec 1295 Harvester (Wallac, Inc.), and counted in a LKB 1205 Betaplate Liquid Scintillation Counter (Wallac, Inc.). Negative controls included substrate plus ATP alone. SW1353 cellular assay: SW1353 cells (human chondro-sarcoma) are seeded (1000 cells/100 μL DMEM 10% FCS/well) into 96-well plates and incubated overnight. […] Cultures are incubated for 48 h at 37° C., then supernatant IL-6 values are determined by ELISA.

[2] = system: basal pERK in MDA-MB-231 cells; experiment: Bio-Plex phospho-ERK1/2 immunoassay; type: cell-based, human
Description: A 96 well pERK immunoassay, using laser flow cytometry (Bio-Rad) platform has been established to measure inhibition of basal pERK in breast cancer cell line. MDA-MB-231 cells were plated at 50,000 cells per well in 96 well microtitre plates in complete growth media. For effects of test compounds on basal pERK1/2 inhibition, the next day after plating, MDA-MB-231 cells were transferred to DMEM with 0.1% BSA and incubated with test compounds diluted 1:3 to a final concentration of 3 μM to 12 nM in 0.1% DMSO. Cells were incubated with test compounds for 2 h, washed, and lysed in Bio-Plex whole cell lysis buffer A. Samples are diluted with buffer B 1:1 (v/v) and directly transferred to assay plate or frozen at −80 C. degrees until processed. 50 μL of diluted MDA-MB-231 cell lysates were incubated with about 2000 of 5 micron Bio-Plex beads conjugated with an anti-ERK1/2 antibody overnight on a shaker at room temperature. The next day, biotinylated phospho-ERK1/2 sandwich immunoassay was performed, beads are washed 3 times during each incubation and then 50 μL of PE-strepavidin was used as a developing reagent. The relative fluorescence units of pERK1/2 were detected by counting 25 beads with Bio-Plex flow cell (probe) at high sensitivity. The IC50 was calculated by taking untreated cells as maximum and no cells (beads only) as background using in an Excel spreadsheet based program.

[3] = molecular target: T2, Flk-1 (murine VEGFR-2) (Mus musculus, UniProt P35918); experiment: Flk-1 (murine VEGFR-2) biochemical assay (TR-FRET); conditions: in words
T2 construct: 7 nM Flk-1 (kinase domain)
Description: This assay was performed in 96-well opaque plates (Costar 3915) in the TR-FRET format. Reaction conditions are as follows: 10 μM ATP, 25 nM poly GT-biotin, 2 nM Eu-labelled phospho-Tyr Ab, 10 nM APC, 7 nM Flk-1 (kinase domain), 1% DMSO, 50 mM HEPES pH 7.5, 10 mM MgCl2, 0.1 mM EDTA, 0.015% BRIJ, 0.1 mg/mL BSA, 0.1% mercapto-ethanol). Reaction is initiated upon addition of enzyme. Final reaction volume in each well is 100 μL. Plates are read at both 615 and 665 nM on a Perkin Elmer Victor V Multilabel counter at about 1.5-2.0 hours after reaction initiation. Signal is calculated as a ratio: (665 nm/615 nm)*10000 for each well.
For IC50 generation for both PDGFR and Flk-1, compounds were added prior to the enzyme initiation. A 50-fold stock plate was made with compounds serially diluted 1:3 in a 50% DMSO/50% dH2O solution. […] The data were expressed as percent inhibition: % inhibition=100−((Signal with inhibitor-background)/(Signal without inhibitor-background))*100

[4] = Metabolite profile, incubation of [14C]regorafenib with liver microsomes (man); type: in vitro ADME; conditions: [14C]regorafenib 20 μM, liver microsomes 0.5 mg/mL, 60 min
Description: (§1) N-oxide (M-2), hydroxymethyl (M-3), de-methylated (M-4) and N-oxide-demethylated (M-5) metabolites of the fluoro-substituted diaryl urea of Formula (I) are shown below. They were identified as metabolites of regorafenib in vitro upon incubation with liver enzymes of various mammalian species (man, dog, rat, mouse). Studies reveal that its metabolites show high protein binding in man and animal species (data not shown). [table]

[5] = Metabolite profile, incubation of [14C]regorafenib with liver microsomes (mouse); type: in vitro ADME, NMRI mouse; conditions: [14C]regorafenib 20 μM, liver microsomes 0.5 mg/mL, 60 min
Description: as §1

T1 sequence (Q16539 whole entry): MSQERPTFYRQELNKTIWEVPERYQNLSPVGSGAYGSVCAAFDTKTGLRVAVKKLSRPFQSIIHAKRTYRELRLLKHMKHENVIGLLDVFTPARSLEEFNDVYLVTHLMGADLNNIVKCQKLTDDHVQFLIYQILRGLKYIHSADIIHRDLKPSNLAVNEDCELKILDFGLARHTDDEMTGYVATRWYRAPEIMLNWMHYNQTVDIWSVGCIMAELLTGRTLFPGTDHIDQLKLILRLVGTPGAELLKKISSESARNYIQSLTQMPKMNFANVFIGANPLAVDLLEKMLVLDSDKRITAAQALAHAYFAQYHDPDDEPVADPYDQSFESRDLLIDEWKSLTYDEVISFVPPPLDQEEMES
T2 sequence (P35918 832-1160 limits assumed): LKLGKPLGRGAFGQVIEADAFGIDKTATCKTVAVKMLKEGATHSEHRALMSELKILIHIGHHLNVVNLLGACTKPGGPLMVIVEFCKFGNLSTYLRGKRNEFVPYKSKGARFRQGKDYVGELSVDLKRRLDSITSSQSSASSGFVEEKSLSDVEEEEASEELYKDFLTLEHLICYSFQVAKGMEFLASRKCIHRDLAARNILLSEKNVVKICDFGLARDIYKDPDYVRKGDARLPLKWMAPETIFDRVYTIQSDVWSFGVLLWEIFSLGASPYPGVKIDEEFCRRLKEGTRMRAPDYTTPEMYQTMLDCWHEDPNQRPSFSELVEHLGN

CNC(=O)c1cc(Oc2ccc(NC(=O)Nc3ccc(Cl)c(C(F)(F)F)c3)c(F)c2)ccn1 [Example 1, 4{4-[3-(4-chloro-3-trifluoromethylphenyl)-ureido]-3-fluorophenoxy}-pyridine-2-carboxylic acid methylamide]
inhibition of p38 kinase [1]: significant inhibition
IC50 ([2]; Homo sapiens, MDA-MB-231 cells, 2 h): 22 nM
inhibition of basal pERK ([2]; in words): significant inhibition
inhibition of VEGFR2 kinase [3]: significant inhibition
% of radioactivity, Man [4]: 59.1%
% of radioactivity, NMRI mouse [5]: 57.8%
